What was measured:
cord blood CD34+ cells [1] = assay: Progenitor colony forming assay (CFU) in semi solid cultures; assay type: cell-based, human; settings: for colony (CFU-C) formation in the presence of GM-CSF: IL-3 plus GM-CSF 5 ng/ml, scored day 14; for colony (CFU-C) formation in the presence of GM-CSF / colony formation, culture not supplemented with myeloid cytokines: SKF 1 μM or 7-OH-DPAT 100 nM; for colony formation, culture not supplemented with myeloid cytokines: no GM-CSF or G-CSF; for clonogenic capacity of human cord blood CD34+ cells: epinephrine 10 nM, norepinephrine 1 and 10 nM added to the methyl cellulose
Experimental: (vii) Progenitor colony forming assay (CFU). In order to detect the levels of human progenitors, semisolid cultures were carried out as previously described (Peled et al. 1999). In brief, CD34^+ cells (1×10^3 cells/ml) were plated in 0.9% methylcellulose (Sigma), 30% FCS, 5×10^−5M 2ME, 50 ng/ml SCF, 5 ng/ml IL-3, 5 ng/ml GM-CSF (R&D), and 2 u/ml Erythropoietin (Orto Bio Tech, Don Mills, Canada) together with the dopamine agonists/antagonist. In some experiments the cells were pre-incubated for 4 days with the agonists/antagonist prior to plating in the semisolid culture. The cultures were incubated at 37° C. in a humidified atmosphere containing 5% CO2 and scored 14 days later for myeloid or erythroid colonies by morphologic criteria. In experiments where the level of in vivo engraftment by primitive human cells was determined, the semisolid media contained 15% human plasma and 15% FCS.
GM-CSF and G-CSF are known for their role in myeloid differentiation and in stem cell regulation. It is common practice to add these cytokines to progenitor colony forming assay (CFU) in order to facilitate detection of human progenitors. […] We therefore tested whether up regulation of dopamine receptor levels affects progenitor development in vitro. For this purpose cord blood CD34^+ cells were seeded in semi solid cultures (1×10^3 cells/ml in 1 ml) supplemented with the cytokines Epo (2 u/ml; Orto Bio Tech, Don Mills, Canada.), SCF (50 ng/ml; R&D) and IL-3 (5 ng/ml R&D) and with GM-CSF (5 ng/ml; R&D) or G-CSF (100 ng/ml; Roche) in order to up regulate dopamine receptor levels. To evaluate the effect of increased dopamine receptor activity, the semi solid cultures were supplemented with dopamine agonist SKF (1 μM) or 7-OH-DPAT (100 nM) or with medium as a control.
Next, the effect of the adrenergic neurotransmitters epinephrine (10 nM) and norepinephrine (1 and 10 nM) on proliferation of human CD34+ cells was assessed. The experimental conditions were similar to those conducted with the dopamine agonists. For colony assay, epinephrine and norepinephrine were added to the methyl cellulose. […] For engraftment assay, cells were incubated for 2 days in RPMI supplemented with GM-CSF 5 ng/ml.

[2] = system: murine bone marrow mononuclear cells; assay: Spontaneous migration of bone marrow mononuclear cells from treated mice; assay type: in vivo; settings: cells from mice treated with G-CSF plus agonist compared to G-CSF alone
human CD34+ cells [3] = assay: Engraftment of ex-vivo treated human CD34+ cells in bone marrow of irradiated NOD/SCID mice; settings: for engraftment in the murine BM compared to control cells: MPB CD34+ cells incubated 2-4 days with 1 μM SKF or 100 ng/ml 7-OH-DPAT before injection, human CD45 in BM 5 weeks post injection; for engraftment of human CD34+ cells in NOD/SCID mice: cord blood CD34+ cells incubated 2 days with GM-CSF 5 ng/ml with or without the neurotransmitter prior to injection
Experimental: (ii) Mice. […] Eight-ten week old mice were sublethally irradiated (375 cGy, from a 60 Co source) and transplanted with human cells as indicated (2×10^5 cells/mouse) 24 hours post irradiation.
(iii) Cell transplantation. Cells were injected into the tail vein of NOD/SCID in 0.5 ml of RPMI supplemented with 10% FCS.
(iv) Assessment of cell engraftment. Recipient mice were irradiated with a sublethal (350 cGy) dose from a Cesium source 24 hours prior to injection of cells. MPB or CB CD34^+ cells (2-3×10^5/mouse) were treated with SKF or 7-OH-DPAT for 2-4 days and injected i.v. into NOD/SCID mice. Mice were sacrificed 5-6 weeks post transplantation of human cells for assessing human cell engraftment assessment. BM (femur, tibia and pelvis bones flushed with a syringe), spleen, and peripheral blood cells were harvested and resuspended into single cell suspensions. WBCs were counted and in some experiments MNCs were isolated from samples by standard separation on Ficol-Hypaque (Pharmacia Biotech). Human cell engraftment was assayed by flow cytometry (FACSCalibur, BD). Cells were triple-stained with CD45-FITC, CD38-PE and CD34-APC (Becton Dickinson) antibodies. Human plasma and mouse IgG were used to block Fc receptors. Human leukocytes were gated according to their expression of the pan-leukocyte marker CD45, and amongst this population the percentage of CD34^+/CD38^−/low primitive cells was determined.
To assess the effect of dopamine receptor on engraftment of stem cells, mobilized peripheral blood (MPB) enriched human CD34^+ cells treated ex-vivo with the dopamine agonists SKF or 7-OH-DPAT were transplanted in NOD/SCID mice and engraftment of human cell in the murine BM was determined. Briefly, 1-3×10^5 MPB CD34^+ cells were incubated for 2-4 days at 37° C. in RPMI supplemented with 10% FCS, penicillin streptomycin and L-Glutamine and treated with the dopamine receptor agonists (1 μM) SKF or (100 ng/ml) 7-OH-DPAT or were left untreated. After the incubation, the cells were injected in irradiated NOD/SCID mice. The mice were sacrificed 5 weeks post injection, BM was extracted and the BM cells were labeled for the human CD45 marker.
The experimental conditions were similar to those conducted with the dopamine agonists. […] For engraftment assay, cells were incubated for 2 days in RPMI supplemented with GM-CSF 5 ng/ml.

cord blood CD34+ cells [4] = assay: Polarization of CB CD34+ cells upon adhesion to hyaluronic acid; assay type: cell-based, human; settings: CB CD34+ cells on HA-coated cover slips, 2 hours at 37° C.
Experimental: Enriched CB CD34^+ cells (1×10^5 to 2×10^5 cells per well) were plated on HA-coated cover slips for 2 hours at 37° C., either untreated or treated with SKF or 7-OH-DPAT. Samples were processed for microscopic observation as described (Goichberg et al., 2001). In brief, the adherent cells were fixed with 3% paraformaldehyde (Merck, Darmstadt, Germany) and, if indicated, permeabilized in 0.5% Triton X-100 (Sigma-Aldrich). Samples were indirectly immunolabeled at room temperature in a humidified chamber with using purified polyclonal rabbit anti human Dopamine D5 antibodies (Calbiochem, Nottingham, UK) (MCAP89; Serotec). The secondary antibodies used were Goat anti rabbit Alexa 488 conjugated (Molecular Probes, Eugene Oreg.). Phalloidin—TRITC used to detect polymerized actin, was purchased from Sigma-Aldrich. Following labeling, cells were mounted in Elvanol (Mowiol 4-88, Hoechst, Frankfurt, Germany). Immunofluorescence images were acquired using scientific-grade CCD camera and processed by the Delta Vision system using Resolve 3D software (Applied Precision, Issaquah, Wash.).
We assessed changes in morphology of cord blood CD34^+ cells upon adhesion to hyaluronic in the presence or the absence of the dopamine agonists SFK or 7-OH-DPAT.

BM cells = assay: Bone marrow cellularity (WBC) after 5 daily i.p. injections in mice; assay type: in vivo; settings: WBC on day 5, 4 hrs after last injection
Experimental: For this purpose, mice were injected with 5 daily i.p injections of the dopamine agonist 7-OH-DPAT (1.5 mg/kg) or antagonist flupenthixol 5 (3 mg/kg) or remained untreated and the bone marrow cell mass was determined. On day 5, 4 hrs after last injection, mice were sacrificed, BM cells were flushed from BM (with a syringe), and White Blood Count (WBC) was determined.

human CD34+ cells [5] = system: human CD34+ cells
Experimental: (viii) Chemotaxis assays. Chemotaxis experiments were assayed using transwells (6.5 mm diameter, 5 μm pore; Corning Inc., Corning, N.Y.) as previously described (1). […] Migrating cells were counted using FACSCalibur (Becton Dickinson).
We tested the effect of dopamine (1 nM-1 uM) on in vitro migration potential of immature human CD34^+ cells (50,000-100,000 cells in 100 ul). […] Since dopamine is highly oxidative, its agonists were used, particularly in treatments requiring longer incubation periods (FIG. 6D).

[6] = system: dopamine receptors 3 and 5 in CD34+/CD38-/low cells; assay: In vitro 3-day incubation with GM-CSF, dopamine receptor staining; assay type: cell-based, human; settings: 3-day incubation with GM-CSF 5 ng/ml; MPB, normal BM or cord blood cells
Experimental: (§1) (vi) Flow cytometry analysis. Phenotypes of human and murine cells were examined by immunostaining, followed by flow cytometry analysis on FACSCalibur (Becton Dickinson, San Jose, Calif.) with CellQuest software. Single cell suspension were prepared in PBS containing 0.01% sodium azide and 1% FCS. Human plasma and mouse IgG were used to block human and murine Fc-receptors. Isotype-matched control antibodies were used to exclude false positive cells. Staining was performed in 4° C. for 30 minutes. Engraftment of human cells was examined by staining with mouse anti-human CD45-Fitc, CD38-PE and CD34-APC (Becton Dickinson). Human leukocytes were gated according to their expression of the pan-leukocyte marker CD45, and amongst this population the percentage of CD34+/CD38−/low primitive cells was determined. In several experiments dopamine receptor expression on CD34+/CD38−/low was tested, cells were triple stained with mouse anti-human CD38-PE, CD34-APC and rabbit anti human dopamine receptor 3 or 5 (Calbiochem, Nottingham, UK) followed by secondary antibodies goat anti rabbit alexa 488 (Molecular Probes, Eugene, Oreg.). After staining, cells were washed in FACS buffer and analyzed by fluorescence-activated cell sorting (FACSCalibur and CellQuest software, Becton Dickinson). […]

[7] = system: dopamine receptor 3 and 5 on human CD34+/CD38-/low cells; assay: Dopamine receptor expression on human cells from BM of G-CSF treated chimeric NOD/SCID mice; assay type: in vivo, human cells in NOD/SCID mice; settings: 5 daily s.c. injections of G-CSF
Experimental: Mobilization in NOD/SCID mice engrafted with human cells was performed as follows: mice received a daily subcutaneous injection of G-CSF (Filgrastim, […] in […] 0.9% NaCl, 5% fetal calf serum (FCS), pH 4.55) for 5 consecutive days and were sacrificed 4 hrs after the last injection. Peripheral blood from mice asphyxied with dry ice was collected by cardiac aspiration in heparinized tubes. Number of WBC in the peripheral blood was determined.
as §1, with “Engraftment of human cells was examined by staining with mouse anti-human CD45-Fitc, CD38-PE and CD34-APC (Becton Dickinson).” left out, “In several experiments dopamine receptor expression on CD34+/CD38−/low was tested, cells were triple stained with mouse anti-human CD38-PE, CD34-APC and rabbit anti human dopamine receptor 3 or 5 (Calbiochem, Nottingham, UK) followed by secondary antibodies goat anti rabbit alexa 488 (Molecular Probes, Eugene, Oreg.).” left out

[8] = system: dopamine receptors type 3 and 5 on the surface of CD34+ enriched cells; assay: Flow cytometry of dopamine receptor expression on CD34+ cells from BM of G-CSF treated or untreated donors; assay type: in vivo, human; settings: CD34+ cells from BM of G-CSF treated healthy donors vs BM of untreated healthy donors
Description: (i) Human cells and reagents. Human cord blood (CB), adult G-CSF mobilized peripheral blood (MPBL) and BM from normal or G-CSF treated donors mononuclear cells were obtained after informed consent in accordance with procedures approved by the human ethics committee of the Weizmann Institute of Science. The cell surface protein CD34 is frequently used as a marker for positive selection of human hematopoietic stem/progenitor cells in research and in transplantation. CD34^+ cell enrichment was performed using magnetic bead separation as previously described (Spiegel A et al Blood 2004; 2900-7). Cells were cultured in RPMI 1640 medium supplemented with 10% heat-inactivated FCS, antibiotics and glutamine.
Human CB cells were obtained from full-term deliveries after informed consent. Blood samples were diluted 1:1 in PBS. […]
(vi) Flow cytometry analysis. […] Human leukocytes were gated according to their expression of the pan-leukocyte marker CD45, and amongst this population the percentage of CD34+/CD38−/low primitive cells was determined. […] After staining, cells were washed in FACS buffer and analyzed by fluorescence-activated cell sorting (FACSCalibur and CellQuest software, Becton Dickinson).
Expression of dopamine receptors type 3 and 5 was evaluated on the surface of CD34^+ enriched cells that were obtained from different sources. […]

[9] = system: beta-2 adrenergic receptor on CD34+ cells; assay: Flow cytometry of beta-2 adrenergic receptor on CD34+ cells; set-up: species or system human; settings: in vivo G-CSF stimulated (mobilized) peripheral blood CD34+ cells
Description: We carried out experiments in order to test whether CD34+ cells are regulated by additional catecholamines neurotransmitters.

## Cl.Oc1cc2c(cc1O)C(c1ccccc1)CNCC2 (single isomer, unassigned; (+)) [SKF, (+)-1-phenyl-2,3,4,5-tetrahydro(1H)-3-benzazepine-7,8-diol hydrochloride]
Cord blood CD34+ cells [1]; CB CD34+ cells, Epo, SCF
  colony (CFU-C) formation in the presence of GM-CSF: augmented
Cord blood CD34+ cells [1]; CB CD34+ cells
  colony formation, culture not supplemented with myeloid cytokines: No increase
[2]
  spontaneous migration of murine bone marrow mononuclear cells: higher spontaneous migration
Human CD34+ cells [3]
  engraftment in the murine BM compared to control cells: 2 fold
Cord blood CD34+ cells [4]
  percent of cells that exhibited polarized morphology compared to control: more than doubled

## CCCN(CCC)C1CCc2ccc(O)cc2C1 (stereo not shown) [7-OH-DPAT, 7-hydroxy-2-dipropylaminotetralin]
Cord blood CD34+ cells [1]; CB CD34+ cells, Epo, SCF, IL-3 plus G-CSF 100 ng/ml, 7-OH-DPAT 100 nM
  colony formation in the presence of G-CSF: the largest increase
Cord blood CD34+ cells [1]; CB CD34+ cells, Epo, SCF
  colony (CFU-C) formation in the presence of GM-CSF: increased colony formation
Cord blood CD34+ cells [1]; CB CD34+ cells
  colony formation, culture not supplemented with myeloid cytokines: No increase
[2]
  spontaneous migration of murine bone marrow mononuclear cells: higher spontaneous migration
BM cells; 7-OH-DPAT 1.5 mg/kg
  increase in BM cellularity: 50%
Human CD34+ cells [3]
  engraftment in the murine BM compared to control cells: 2 fold
Cord blood CD34+ cells [4]
  percent of cells that exhibited polarized morphology compared to control: more than doubled

## CN1CCN(C2=Nc3cc(Cl)ccc3Nc3ccccc32)CC1 [clozapine]
Human CD34+ cells [3]; MPB CD34+ cells pretreated with antagonist prior to injection, 5 weeks
  decrease in engraftment: 50%

## NCCc1ccc(O)c(O)c1 [dopamine]
Human CD34+ cells [5]; cells pre-treated with GM-CSF, dopamine 10 nM (tested 1 nM-1 uM)
  migration of cord blood CD34+ enriched cells towards dopamine in the lower chamber: significantly increased
Human CD34+ cells [5]; no GM-CSF pre-treatment, data not shown
  migration of cord blood CD34+ cells towards dopamine, cells not pre-treated with GM-CSF: not detected

## CNC[C@H](O)c1ccc(O)c(O)c1 [epinephrine]
Cord blood CD34+ cells [1]
  clonogenic capacity of human cord blood CD34+ cells: increase the clonogenic capacity
Human CD34+ cells [3]
  engraftment of human CD34+ cells in NOD/SCID mice: enhance engraftment

## OCCN1CCN(CCC=C2c3ccccc3Sc3ccc(C(F)(F)F)cc32)CC1 [flupenthixol, 2-[4-[3-[2-(trifluoromethyl)thioxanthen-9-ylidene]propyl]piperazin-1-yl]ethanol]
BM cells; flupenthixol 3 mg/kg
  decrease in BM cellularity: 25%

## NC[C@H](O)c1ccc(O)c(O)c1 [norepinephrine]
Cord blood CD34+ cells [1]
  clonogenic capacity of human cord blood CD34+ cells: increase the clonogenic capacity
Human CD34+ cells [5]; CB (GM-CSF pretreated) or MPB CD34+ cells, 1 or 10 nM norepinephrine
  migration of CD34+ cells towards norepinephrine in the lower well: increased migration
Human CD34+ cells [3]
  engraftment of human CD34+ cells in NOD/SCID mice: enhance engraftment

## GM-CSF: myeloid cytokine, granulocyte/macrophage-colony stimulating factor
[6]
  levels of dopamine receptors 3 and 5 in CD34+/CD38-/low cells: up regulated

B1: G-CSF: myeloid cytokine, granulocyte colony-stimulating factor (Filgrastim, Roche) (protein, chains of the INN, looked up)
chain: MTPLGPASSLPQSFLLKCLEQVRKIQGDGAALQEKLCATYKLCHPEELVLLGHSLGIPWAPLSSCPSQALQLAGCLSQLHSGLFLYQGLLQALEGISPELGPTLDTLQLDVADFATTIWQQMEELGMAPALQPTQGAMPAFASAFQRRAGGVLVASHLQSFLEVSYRVLRHLAQP
[7]
  level of dopamine receptor expression in the CD34+/CD38-/low cell population: increase
[8]
  expression of dopamine receptor on the surface of enriched CD34+ cells, higher than untreated donors: 2-4 folds
[9]
  levels of β2-adrenergic receptor on CD34+ cells: higher levels

From patent US8241903B2, “Catecholamine receptor modulation” (Yeda Research and Development Co., Ltd., priority 2006, dated 2012)
